Read-outs that look alike come from different tables or passages of the source.
Key:
[1] = test system: Staphulococcus aureus (ATCC 29213); assay: Minimum inhibitory concentration (MIC) assay, Example 33; type: cell-based, Staphylococcus aureus; conditions: Staphylococcus aureus
How it was run: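 Broth microdilution per CLSI guidelines in CAMHB, with 2-fold serial compound dilutions. Inoculum was set to a 0.5 McFarland standard, diluted 1:100 to twice the test density, then mixed 1:2 with drug. Plates were incubated at 35° C and the MIC read per CLSI.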

[2] = test system: Aspergillus niger (CMCC 98003); assay: Time kill study, Example 33 (0 to 5 min); type: cell-based; conditions: 1×MIC
Procedure: Thirty compounds were tested for antimicrobial activity using standard procedures and standard strains for both the minimum inhibitory concentration (MIC) assay and a time kill study. Both the MIC assay and the time kill study were performed according to Clinical and Laboratory Standards Institute (CLSI) guidelines. Three bacteria strains, Escherichia coli (ATCC 25922), Pseudomonas aeruginosa (ATCC 27853), Staphulococcus aureus (ATCC 29213), and two fungus strains, Candida albicans (ATCC 90029) and Aspergillus niger (CMCC 98003), were used in the experiments.
The viable counts in Log10 CFU/mL at each time point were recorded.
(§1) Time kill studies. Strain suspensions were prepared as described above for the MIC test, and strain suspensions and compound solutions were mixed in the same volume. Samples were removed at specified times including 0 min, 30 sec, 1 min and 5 mins, were diluted in the test medium and streaked on agar. Colonies were counted after 24 to 48 hrs of incubation.
The MIC values for thirty compounds against Escherichia coli, Pseudomonas aeruginosa, Staphulococcus aureus, Candida albicans, and Aspergillus niger were recorded and are presented in Table 3 and Table 4.

[3] = test system: Aspergillus niger; assay: Extended time kill study, Example 34 (0 to 24 h); type: cell-based
Procedure: as §1
(§2) The time kill studies of Example 33 were extended for five compounds (Nex-59, Nex-60, Nex-61, Nex-62, and Nex-88) using the same methods at longer time periods and at higher multiples of MIC. Nex-88 is a code number for DDAIP.HCl from a different supplier.

[4] = test system: Candida albicans; assay: Extended time kill study, Example 34 (0 to 24 h); type: cell-based
Procedure: as §1, §2

[5] = test system: Pseudomonas aeruginosa; assay: Extended time kill study, Example 34 (0 to 24 h); type: cell-based
Procedure: as §1, §2

MIC ([1]; ATCC29213, Table 19 summary, read-out: MIC): 25 µg/mL
MIC ([1]; ATCC29213, n = 1, read-out: MIC S. aureus): 25 µg/mL
MIC ([1]; ATCC29213, n = 2, read-out: MIC S. aureus): 25 µg/mL
SMILES: CCCCCCCCCCCCOC(=O)C(C)NCCN(CC)CC.Cl (stereo not shown) [Nex-62, Dodecyl 2-((2-(diethylamino)ethyl)amino)propanoate dihydrochloride]
Viable counts, Aspergillus niger time kill study ([2]; 0.5 min): 5.32 Log10 CFU/mL
Viable counts, Aspergillus niger time kill study ([2]; 1 min): 5.21 Log10 CFU/mL
Viable counts, Aspergillus niger time kill study ([2]; 5 min): 5.02 Log10 CFU/mL
Viable counts, Aspergillus niger time kill study ([2]; time 0): 5.27 Log10 CFU/mL
Viable counts in Log10 CFU/mL ([3]; 1 × MIC, 1 h): 5.53 Log10 CFU/mL
Viable counts in Log10 CFU/mL ([3]; 1 × MIC, 2 h): 5.51 Log10 CFU/mL
Viable counts in Log10 CFU/mL ([3]; 1 × MIC, 4 h): 5.15 Log10 CFU/mL
Viable counts in Log10 CFU/mL ([3]; 1 × MIC, 6 h): 4.78 Log10 CFU/mL
Viable counts in Log10 CFU/mL ([3]; 1 × MIC, 24 h): 4 Log10 CFU/mL
Viable counts in Log10 CFU/mL ([3]; 1 × MIC, 0 h): 5.51 Log10 CFU/mL
Viable counts in Log10 CFU/mL ([3]; 2 × MIC, 1 h): 5.48 Log10 CFU/mL
Viable counts in Log10 CFU/mL ([3]; 2 × MIC, 2 h): 5.57 Log10 CFU/mL
Viable counts in Log10 CFU/mL ([3]; 2 × MIC, 4 h): 5.08 Log10 CFU/mL
Viable counts in Log10 CFU/mL ([3]; 2 × MIC, 6 h): 5.38 Log10 CFU/mL
Viable counts in Log10 CFU/mL ([3]; 2 × MIC, 24 h): 5.58 Log10 CFU/mL
Viable counts in Log10 CFU/mL ([3]; 2 × MIC, 0 h): 5.49 Log10 CFU/mL
Viable counts in Log10 CFU/mL ([3]; 4 × MIC, 1 h): 5.49 Log10 CFU/mL
Viable counts in Log10 CFU/mL ([3]; 4 × MIC, 2 h): 5.49 Log10 CFU/mL
Viable counts in Log10 CFU/mL ([3]; 4 × MIC, 4 h): 5.00 Log10 CFU/mL
Viable counts in Log10 CFU/mL ([3]; 4 × MIC, 6 h): 5.20 Log10 CFU/mL
Viable counts in Log10 CFU/mL ([3]; 4 × MIC, 24 h): 3.85 Log10 CFU/mL
Viable counts in Log10 CFU/mL ([3]; 4 × MIC, 0 h): 5.56 Log10 CFU/mL
Viable counts in Log10 CFU/mL ([4]; 1 × MIC, 1 h): 5.75 Log10 CFU/mL
Viable counts in Log10 CFU/mL ([4]; 1 × MIC, 2 h): 5.78 Log10 CFU/mL
Viable counts in Log10 CFU/mL ([4]; 1 × MIC, 4 h): 6.04 Log10 CFU/mL
Viable counts in Log10 CFU/mL ([4]; 1 × MIC, 6 h): 6.21 Log10 CFU/mL
Viable counts in Log10 CFU/mL ([4]; 1 × MIC, 24 h): >6 Log10 CFU/mL
Viable counts in Log10 CFU/mL ([4]; 1 × MIC, 0 h): 5.74 Log10 CFU/mL
Viable counts in Log10 CFU/mL ([4]; 2 × MIC, 1 h): 5.68 Log10 CFU/mL
Viable counts in Log10 CFU/mL ([4]; 2 × MIC, 2 h): 5.67 Log10 CFU/mL
Viable counts in Log10 CFU/mL ([4]; 2 × MIC, 4 h): 5.68 Log10 CFU/mL
Viable counts in Log10 CFU/mL ([4]; 2 × MIC, 6 h): 5.58 Log10 CFU/mL
Viable counts in Log10 CFU/mL ([4]; 2 × MIC, 24 h): >6 Log10 CFU/mL
Viable counts in Log10 CFU/mL ([4]; 2 × MIC, 0 h): 5.76 Log10 CFU/mL
Viable counts in Log10 CFU/mL ([4]; 4 × MIC, 1 h): 5.32 Log10 CFU/mL
Viable counts in Log10 CFU/mL ([4]; 4 × MIC, 2 h): 5.33 Log10 CFU/mL
Viable counts in Log10 CFU/mL ([4]; 4 × MIC, 4 h): 5.00 Log10 CFU/mL
Viable counts in Log10 CFU/mL ([4]; 4 × MIC, 6 h): 4.53 Log10 CFU/mL
Viable counts in Log10 CFU/mL ([4]; 4 × MIC, 24 h): <1 Log10 CFU/mL
Viable counts in Log10 CFU/mL ([4]; 4 × MIC, 0 h): 5.69 Log10 CFU/mL
Viable counts, Pseudomonas aeruginosa time kill study ([5]; 1 × MIC, 1 h): <1 Log10 CFU/mL
Viable counts, Pseudomonas aeruginosa time kill study ([5]; 1 × MIC, 2 h): <1 Log10 CFU/mL
Viable counts, Pseudomonas aeruginosa time kill study ([5]; 1 × MIC, 4 h): <1 Log10 CFU/mL
Viable counts, Pseudomonas aeruginosa time kill study ([5]; 1 × MIC, 6 h): <1 Log10 CFU/mL
Viable counts, Pseudomonas aeruginosa time kill study ([5]; 1 × MIC, 24 h): <1 Log10 CFU/mL
Viable counts, Pseudomonas aeruginosa time kill study ([5]; 1×MIC, time 0): 5.20 Log10 CFU/mL
Viable counts, Pseudomonas aeruginosa time kill study ([5]; 2 × MIC, 1 h): <1 Log10 CFU/mL
Viable counts, Pseudomonas aeruginosa time kill study ([5]; 2 × MIC, 2 h): <1 Log10 CFU/mL
Viable counts, Pseudomonas aeruginosa time kill study ([5]; 2 × MIC, 4 h): <1 Log10 CFU/mL
Viable counts, Pseudomonas aeruginosa time kill study ([5]; 2 × MIC, 6 h): <1 Log10 CFU/mL
Viable counts, Pseudomonas aeruginosa time kill study ([5]; 2 × MIC, 24 h): <1 Log10 CFU/mL
Viable counts, Pseudomonas aeruginosa time kill study ([5]; 2 × MIC, time 0): 5.25 Log10 CFU/mL
Viable counts, Pseudomonas aeruginosa time kill study ([5]; 4 × MIC, 1 h): <1 Log10 CFU/mL
Viable counts, Pseudomonas aeruginosa time kill study ([5]; 4 × MIC, 2 h): <1 Log10 CFU/mL
Viable counts, Pseudomonas aeruginosa time kill study ([5]; 4 × MIC, 4 h): <1 Log10 CFU/mL
Viable counts, Pseudomonas aeruginosa time kill study ([5]; 4 × MIC, 6 h): <1 Log10 CFU/mL
Viable counts, Pseudomonas aeruginosa time kill study ([5]; 4 × MIC, 24 h): <1 Log10 CFU/mL
Viable counts, Pseudomonas aeruginosa time kill study ([5]; 4 × MIC, time 0): 5.23 Log10 CFU/mL

— patent US20140357713A1, “ANTIMICROBIAL COMPOUNDS AND METHODS OF USE” (NexMed Holdings, Inc., priority 2012, published 2014)
